Measurements taken from patent US8618299B2, “Azinone-substituted azapolycycle MCH-1 antagonists, methods of making, and use thereof” (Albany Molecular Research, Inc., priority 2009, dated 2013).
Counter-ions that a name gives are not always drawn.

What was measured:
human MCH-1 receptor = human MCH-1 receptor (Homo sapiens (Human), UniProt Q99705); test: Binding assay for human melanin-concentrating hormone (MCH1) receptor; conditions: membranes from CHO-K1 cells expressing human MCH1 receptor, 1.4 nM [3H]-labeled radioligand, 60 min at 25° C., pH 7.4, Ki from Cheng Prusoff equation
Method: Binding Assay for Human Melanin-Concentrating Hormone (MCH1) Receptor
Evaluation of the affinity of compounds for the human MCH-1 receptor was accomplished using 4-(3,4,5-tritritiumbenzyloxy)-1-(1-(2-(pyrrolidin-1-yl)ethyl)-1H-indazol-5-yl)pyridin-2(1H)-one and membranes prepared from stable CHO-K1 cells expressing the human MCH1 receptor obtained from Euroscreen (Batch 1138). Cell membrane homogenates (8.92 μg protein) were incubated for 60 min at 25° C. with 1.4 nM of the [^3H]-labeled compound in the absence or presence of the test compound in 50 mM Tris-HCl buffer, pH 7.4. Nonspecific binding was determined in the presence of 50 μM 1-(5-(4-cyanophenyl)bicyclo[3.1.0]hexan-2-yl)-3-(4-fluoro-3-(trifluoromethyl)phenyl)-1-(3-(4-methylpiperazin-1-yl)propyl)urea. Following incubation, the samples were filtered rapidly under vacuum through Skatron 11731 filters, pre-soaked in 0.5% polyethylenimine, and washed with ice-cold 50 mM Tris-HCl buffer, pH 7.4, (wash setting 9,9,0) using a Skatron cell harvester. The filters were counted for radioactivity in a liquid scintillation counter (Tri-Carb 2100TR, Packard) using a scintillation cocktail (Ultima Gold MV, Perkin Elmer).
The results are expressed as a percent inhibition of the control radioligand specific binding. The IC50 value (concentration causing a half-maximal inhibition of control specific binding) and Hill coefficient (nH) were determined by non-linear regression analysis of the competition curve using Hill equation curve fitting. The inhibition constant (Ki) was calculated from the Cheng Prusoff equation: (Ki=IC50/(1+(L/KD)), where L=concentration of radioligand in the assay, and KD=affinity of the radioligand for the receptor.

Chain of human MCH-1 receptor (Q99705 whole entry): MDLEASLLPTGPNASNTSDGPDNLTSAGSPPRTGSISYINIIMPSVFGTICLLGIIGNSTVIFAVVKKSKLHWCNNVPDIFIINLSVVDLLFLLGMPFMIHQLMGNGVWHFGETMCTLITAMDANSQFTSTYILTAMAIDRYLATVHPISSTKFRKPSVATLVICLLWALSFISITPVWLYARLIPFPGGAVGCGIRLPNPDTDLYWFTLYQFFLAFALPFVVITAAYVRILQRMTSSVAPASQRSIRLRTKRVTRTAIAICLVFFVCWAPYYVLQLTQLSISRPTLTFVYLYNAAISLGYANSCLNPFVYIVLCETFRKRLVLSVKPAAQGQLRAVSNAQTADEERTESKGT

| SMILES | melting point | Ki (human MCH-1 receptor; Hydrochloride) | Ki (human MCH-1 receptor) |
| --- | --- | --- | --- |
| Cc1ccc(COc2ccn(-c3ccc4c5c(n(C)c4c3)CC3CCCCN3C5)c(=O)c2)cn1 (centres unmarked) (as salt: hydrochloride) [Example 33, 1-(5-Methyl-5,6,6a,7,8,9,10,12-octahydroindolo[2,3-b]quinolizin-3-yl)-4-((6-methylpyridin-3-yl)methoxy)pyridin-2(1H)-one Dihydrochloride] | 270 to 272 °C | – | – |
| Cc1ccc(-c2ccn(-c3ccc4c5c(n(C)c4c3)CC3CCCCN3C5)c(=O)c2)cn1 (centres unmarked) (as salt: hydrochloride) [Example 35, 1-(5-Methyl-5,6,6a,7,8,9,10,12-octahydroindolo[2,3-b]quinolizin-3-yl)-4-(6-methylpyridin-3-yl)pyridin-2(1H)-one Dihydrochloride] | 256 to 260 °C | – | – |
| Cn1c2c(c3ccc(-n4ccc(OCc5ccc(F)cn5)cc4=O)cc31)CN1CCCCC1C2 (centres unmarked) (as salt: hydrochloride) [Example 37, 4-((5-Fluoropyridin-2-yl)methoxy)-1-(5-methyl-5,6,6a,7,8,9,10,12-octahydroindolo[2,3-b]quinolizin-3-yl)pyridin-2(1H)-one Dihydrochloride] | 235 to 238 °C | – | – |
| Cn1c2c(c3ccc(-n4ccc(OCc5ccc(F)cn5)cc4=O)cc31)CCN1CCCC21 (centres unmarked) (as salt: hydrochloride) [Example 43, 4-((5-Fluoropyridin-2-yl)methoxy)-1-(11-methyl-2,3,5,6,11,11b-hexahydro-1H-indolizino[8,7-b]indol-9-yl)pyridin-2(1H)-one Dihydrochloride] | 290 to 293 °C | – | – |
| Cl.Cn1c2c(c3ccc(-n4ccc(OCc5ccccc5)cc4=O)cc31)CCN1CCCC21 (single isomer, unassigned; (+)) [Example 4, (+)4-(Benzyloxy)-1-(11-methyl-2,3,5,6,11,11b-hexahydro-1H-indolizino[8,7-b]indol-9-yl)pyridin-2(1H)-one Hydrochloride] | 227 to 230 °C | 12.3 nM | – |
| Cl.Cn1c2c(c3ccc(-n4ccc(OCc5ccccc5)cc4=O)cc31)CCN1CCCC21 (single isomer, unassigned; (-)) [Example 3, (−)4-(Benzyloxy)-1-(11-methyl-2,3,5,6,11,11b-hexahydro-1H-indolizino[8,7-b]indol-9-yl)pyridin-2(1H)-one Hydrochloride] | 224 to 228 °C | 17.3 nM | – |
| Cl.Cn1c2c(c3ccc(-n4ccc(OCc5ccc(F)cn5)cc4=O)cc31)CN1CCCCC1C2 (single isomer, unassigned; (-)) [Example 38, (−)-4-((5-Fluoropyridin-2-yl)methoxy)-1-(5-methyl-5,6,6a,7,8,9,10,12-octahydroindolo[2,3-b]quinolizin-3-yl)pyridin-2(1H)-one Hydrochloride] | 270 to 280 °C | 19 nM | – |
| Cl.Cn1c2c(c3ccc(-n4ccc(OCc5ccccc5)cc4=O)cc31)CCN1CCCC21 (centres unmarked) [Example 2, 4-(Benzyloxy)-1-(11-methyl-2,3,5,6,11,11b-hexahydro-1H-indolizino[8,7-b]indol-9-yl)pyridin-2(1H)-one Hydrochloride] | 167 to 170 °C | 14.9 nM | – |
| Cl.Cn1c2c(c3ccc(-n4ccc(OCc5ccccc5)cc4=O)cc31)CCN1CCCCC21 (centres unmarked) [Example 5, 4-(Benzyloxy)-1-(12-methyl-1,2,3,4,6,7,12,12b-octahydroindolo[2,3-a]quinolizin-10-yl)pyridin-2(1H)-one Hydrochloride] | 210 to 213 °C | – | 31 nM |
| Cl.Cn1c2c(c3ccc(-n4ccc(-c5ccc(C(F)(F)F)cn5)cc4=O)cc31)CCN1CCCCC21 (centres unmarked) [Example 6, 1-(12-Methyl-1,2,3,4,6,7,12,12b-octahydroindolo[2,3-a]quinolizin-10-yl)-4-(5-(trifluoromethyl)pyridin-2-yl)pyridin-2(1H)-one Hydrochloride] | 280 to 284 °C | – | 481 nM |
| Cl.Cn1c2c(c3ccc(-n4ccc(OCc5ccc(F)cn5)cc4=O)cc31)CCN1CCCCC21 (centres unmarked) [Example 7, 4-((5-Fluoropyridin-2-yl)methoxy)-1-(12-methyl-1,2,3,4,6,7,12,12b-octahydroindolo[2,3-a]quinolizin-10-yl)pyridin-2(1H)-one Hydrochloride] | 200 °C (dec.) | – | 45 nM |
| Cl.Cn1c2c(c3ccc(-n4ccc(OCc5ccc(Cl)cn5)cc4=O)cc31)CCN1CCCCC21 (centres unmarked) [Example 8, 4-((5-Chloropyridin-2-yl)methoxy)-1-(12-methyl-1,2,3,4,6,7,12,12b-octahydroindolo[2,3-a]quinolizin-10-yl)pyridin-2(1H)-one Hydrochloride] | 204 to 208 °C | – | 20 nM |
| Cl.Cn1c2c(c3ccc(-n4ccc(-c5ccc(Cl)cn5)cc4=O)cc31)CCN1CCCCC21 (centres unmarked) [Example 9, 4-(5-Chloropyridin-2-yl)-1-(12-methyl-1,2,3,4,6,7,12,12b-octahydroindolo[2,3-a]quinolizin-10-yl)pyridin-2(1H)-one Hydrochloride] | 210 to 213 °C | – | 1750 nM |
| Cl.Cn1c2c(c3ccc(-n4ccc(OCc5ccccc5)cc4=O)cc31)CN1CCCC1C2 (centres unmarked) [Example 11, 4-(Benzyloxy)-1-(10-methyl-2,3,5,10,11,11a-hexahydro-1H-indolizino[7,6-b]indol-8-yl)pyridin-2(1H)-one Hydrochloride] | 255 to 258 °C | – | 8.1 nM |
| Cl.Cn1c2c(c3ccc(-n4ccc(-c5ccc(C(F)(F)F)nc5)cc4=O)cc31)C1CCCN1CC2 (centres unmarked) [Example 14, 1-(7-Methyl-2,3,5,6,7,11c-hexahydro-1H-indolizino[7,8-b]indol-9-yl)-4-(6-(trifluoromethyl)pyridin-3-yl)pyridin-2(1H)-one Hydrochloride] | 235 to 240 °C | – | 153 nM |
| Cl.O=c1cc(OCc2ccccc2)ccn1-c1ccc2c3c([nH]c2c1)CC1CCCN1C3 (centres unmarked) [Example 16, 4-(Benzyloxy)-1-(2,3,5,10,11,11a-hexahydro-1H-indolizino[7,6-b]indol-8-yl)pyridin-2(1H)-one Hydrochloride] | 270 to 273 °C | – | 7 nM |
| Cl.Cn1c2c(c3ccc(-n4ccc(OCc5ccccc5)cc4=O)cc31)C1CCCN1CC2 (centres unmarked) [Example 17, 4-(Benzyloxy)-1-(7-methyl-2,3,5,6,7,11c-hexahydro-1H-indolizino[7,8-b]indol-9-yl)pyridin-2(1H)-one Hydrochloride] | 260 to 264 °C | – | 12 nM |
| Cl.Cn1c2c(c3ccc(-n4ccc(OCc5ccc(C(F)(F)F)nc5)cc4=O)cc31)C1CCCN1CC2 (centres unmarked) [Example 18, 1-(7-Methyl-2,3,5,6,7,11c-hexahydro-1H-indolizino[7,8-b]indol-9-yl)-4-((6-(trifluoromethyl)pyridin-3-yl)methoxy)pyridin-2(1H)-one Hydrochloride] | 250 to 254 °C | – | 12 nM |
| Cl.Cn1c2c(c3ccc(-n4ccc(OCc5ccccc5)cc4=O)cc31)C1CCCCN1CC2 (centres unmarked) [Example 22, 4-(Benzyloxy)-1-(8-methyl-1,2,3,4,6,7,8,12c-octahydroindolo[3,2-a]quinolizin-10-yl)pyridin-2(1H)-one Hydrochloride] | 250 to 253 °C | – | 21 nM |
| Cl.O=c1cc(-c2ccc(C(F)(F)F)cc2)ccn1-c1ccc2c3c([nH]c2c1)CCN1CCCC31 (centres unmarked) [Example 26, 1-(2,3,5,6,7,11c-Hexahydro-1H-indolizino[7,8-b]indol-9-yl)-4-(4-(trifluoromethyl)phenyl)pyridin-2(1H)-one Hydrochloride] | 280 to 290 °C | – | 12 nM |
| Cl.O=c1cc(-c2ccc(C(F)(F)F)nc2)ccn1-c1ccc2c3c([nH]c2c1)CCN1CCCC31 (centres unmarked) [Example 27, 1-(2,3,5,6,7,11c-Hexahydro-1H-indolizino[7,8-b]indol-9-yl)-4-(6-(trifluoromethyl)pyridin-3-yl)pyridin-2(1H)-one Hydrochloride] | 205 to 215 °C | – | 34 nM |
| Cl.O=c1cc(OCc2ccc(F)cc2F)ccn1-c1ccc2c3c([nH]c2c1)CCN1CCCC31 (centres unmarked) [Example 28, 4-(2,4-difluorobenzyloxy)-1-(2,3,5,6,7,11c-hexahydro-1H-indolizino[7,8-b]indol-9-yl)pyridin-2(1H)-one Hydrochloride] | 210 to 220 °C | – | 12 nM |
| Cl.O=c1cc(OCc2ccccc2)ccn1-c1ccc2c3c([nH]c2c1)CC1CCCCN1C3 (centres unmarked) [Example 29, 4-(Benzyloxy)-1-(5,6,6a,7,8,9,10,12-octahydroindolo[2,3-b]quinolizin-3-yl)-pyridin-2(1H)-one Hydrochloride] | 270 to 273 °C | – | 8.5 nM |
| Cl.Cn1c2c(c3ccc(-n4ccc(-c5ccc(C(F)(F)F)nc5)cc4=O)cc31)CN1CCCC1C2 (centres unmarked) [Example 30, 1-(10-Methyl-2,3,5,10,11,11a-hexahydro-1H-indolizino[7,6-b]indol-8-yl)-4-(6-(trifluoromethyl)pyridin-3-yl)pyridin-2(1H)-one Hydrochloride] | 290 to 293 °C | – | 8.3 nM |
